# According to paper PMC7356692, “Structural Basis of Specific Glucoimidazole and Mannoimidazole Binding by Os3BGlu7” (Biomolecules, 2020):
# Target: T1, Os3BGlu7 (Oryza sativa, UniProt Q75I93)
# T1 construct: gene BGLU7; recombinant from E. coli Origami (DE3); IMAC, fusion tag removed with enterokinase; mature enzyme; two molecules per asymmetric unit
# Assay: X-ray crystallography, […] Å
# Type: binding
# Conditions: crystal soaked in 10 mM mannoimidazole preparation (GIm as contaminant or isomerization product); -1 subsite; pH 6.7
# T1 sequence (Q75I93 29-504): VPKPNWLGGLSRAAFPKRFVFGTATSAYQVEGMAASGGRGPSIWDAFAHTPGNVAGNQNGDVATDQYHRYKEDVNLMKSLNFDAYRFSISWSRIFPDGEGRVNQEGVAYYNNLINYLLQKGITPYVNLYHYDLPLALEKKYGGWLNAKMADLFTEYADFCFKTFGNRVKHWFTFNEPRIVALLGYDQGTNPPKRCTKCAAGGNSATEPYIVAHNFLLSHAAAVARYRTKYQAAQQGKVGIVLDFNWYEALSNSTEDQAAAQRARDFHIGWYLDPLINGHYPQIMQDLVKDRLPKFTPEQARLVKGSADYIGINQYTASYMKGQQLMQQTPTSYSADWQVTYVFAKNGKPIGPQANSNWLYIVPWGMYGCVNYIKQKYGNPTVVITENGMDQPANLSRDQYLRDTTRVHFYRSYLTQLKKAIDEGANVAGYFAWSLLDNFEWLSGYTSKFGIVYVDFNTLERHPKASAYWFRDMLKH
structure (smiles),measurement,value
OC[C@@H]1[C@@H](O)[C@H](O)[C@@H](O)c2nccn21 [glucoimidazole],"X-ray crystallography, 2.3 Å",electron densities of ligand in the active sites of both protein molecules in the asymmetric unit
